Experimental findings from US6825199B2, “7-Substituted quinazolin-2,4-diones useful as antibacterial agents” (Warner-Lambert Company, priority 1997, dated 2004) are described below.

In brackets after ≈: the same amount, converted by molar mass. Like-named read-outs stand apart in the source and are kept apart here. Some results are limits rather than exact numbers.

One data set concerns B. subtilis RB1. Description: Antibacterial assay, standard microtitration (MIC). It counts as cell-based. As to conditions: Bacillus subtilis, Gram positive, read-out: Minimum Inhibitory Concentrations B. subtilis RB1. How it is done: (§1) Antibacterial assay: The compounds of the present invention were tested against an assortment of Gram negative and Gram positive organisms using standard microtitration techniques (Cohen, et al., Antimicrob. Agents Chemother., 1985;28:766; Heifetz, et al., Antimicrob. Agents Chemother., 1974;6:124).

The next data set relates to S. pyogenes C203. Description: Antibacterial assay, standard microtitration (MIC). It counts as cell-based. As to conditions: Streptococcus pyogenes, C203; Gram positive; read-out: Minimum Inhibitory Concentrations S. pyogenes C203. How it is done:
as §1

The test system of another data set is S. aureus 29213. The data set can be described thus: Antibacterial assay, standard microtitration (MIC). Particulars: Staphylococcus aureus, 29213; Gram positive; read-out: Minimum Inhibitory Concentrations S. aureus 29213. It counts as cell-based. The protocol: as §1
The next data set has as its system E. coli Tol C. Description: Antibacterial assay, standard microtitration (MIC). It counts as cell-based. Particulars: Escherichia coli, read-out: Minimum Inhibitory Concentrations E. coli Tol C. The protocol: as §1
For a further data set, the system named is E. coli MC4100. Description: Antibacterial assay, standard microtitration (MIC). Format: cell-based. As to conditions: Escherichia coli, MC4100; Gram negative; read-out: Minimum Inhibitory Concentrations E. coli MC4100. How it is done: as §1
In the next data set the test system is E. coli B90. Description: Antibacterial assay, standard microtitration (MIC). It counts as cell-based. As to conditions: Escherichia coli, B90; Gram negative; read-out: Minimum Inhibitory Concentrations E. coli B90. The protocol: as §1
The test system of data set [1] is Chinese hamster V79 cells. The data set can be described thus: Mammalian cell cytotoxicity, colony formation. It counts as cell-based. As to conditions: 3 hours drug treatment, colony formation after 5 days. How it is done:
The cytotoxicity was determined in Chinese hamster V79 cells. The cells were grown overnight and treated with drug for 3 hours at 37° C., at which time the compound containing media was replaced with fresh media. The cells were then incubated for 5 days and examined for colony formation.

The target of a further data set is T1, E. coli gyrase (Escherichia coli, UniProt P0AES4+P0AES6).
T1 construct: purchased Lucent, Ltd., Leicester, UK
The data set can be described thus: DNA gyrase supercoiling inhibition assay. Format: biochemical. How it is done:
DNA gyrase assay: The effects of test agents on the activity of DNA gyrase was determined by the supercoiling inhibition assay, following reaction conditions recommended by the enzyme supplier (Lucent, Ltd., Leicester, UK), as follows. Reactions were performed in buffer G (35 mM Tris-HCl (pH 7.5), 24 mM KCl, 4 mM MgCl2, 2 mM DTT, 1.8 mM spermidine, 1 mM ATP, 0.1 mg/mL bovine serum albumin). 0.25 μg of relaxed plasmid pBR322 (Lucent, Ltd., Leicester, UK) was reacted with 1 U E. coli gyrase (Lucent, Ltd., Leicester, UK), in the absence or presence of drugs, for 30 minutes at 37° C. Reactions were stopped by the addition of SDS and proteinase K to respective final concentrations of 1% and 0.5 mg/mL. After an additional 30 minutes at 37° C., one-tenth volume of 10×loading buffer (0.3% bromophenol blue, 16% Ficoll, 10 mM Na2HPO4) was added, and reactions were loaded onto agarose gels and electrophoresed as described above for intercalation assays. The concentration of drug inhibiting 50% of the supercoiling activity of DNA gyrase is given as an IC50 and recorded in Table 2.

For another data set, the target named is T2, E. coli Topoisomerase IV (Escherichia coli, UniProt P0AFI2+P20083).
T2 construct: made in house; host or cells: E. coli overexpressing strains
Description: Topoisomerase IV k-DNA decatenation assay. It counts as biochemical. How it is done:
Topoisomerase IV assay: Topoisomerase IV was purified from E. coli overexpressing strains, and the compounds were assayed according to literature conditions (Journal of Biological Chemistry, 1993;268(32):24481). The k-DNA decatenation assay was used. Briefly, reactions were performed in buffer R (40 mM Tris-HCl (pH 7.5),6 mM MgCl2, 10 mM DTT, 100 mM potassium glutamate, 40 μM ATP, 50 μg/mL bovine serum albumin, 10 mM NaCl). Two-tenths microgram of kinetoplast DNA (k-DNA; TopoGen, Columbus, Ohio) was incubated with 5 ng of E. coli Topoisomerase IV in the presence or absence of test compounds for 10 minutes at 37° C. Subsequently, one-tenth volume of 10×gel loading buffer (0.3% bromophenol blue, 16% Ficoll, 10 mM Na2HPO4) was added, and samples were loaded onto horizontal 0.8% agarose gels prepared with TBE buffer and containing 0.05 μg/mL of ethidium bromide. Electrophoresis was at 70 V for 2 to 4 hours. Gels were then examined by exposure to UV light. The concentration of drug inhibiting 50% of the decantenating activity of Topoisomerase IV is given as an IC50 and recorded in Table 2.

The mark [2] stands for this setting: supercoiling of relaxed pBR322, 30 minutes at 37° C., read-out: Gyrase IC50.
Setting [3] is: k-DNA decatenation, 10 minutes at 37° C., read-out: DNA TopIV IC50.

T1 sequence (P0AES4 whole entry, one chain of several): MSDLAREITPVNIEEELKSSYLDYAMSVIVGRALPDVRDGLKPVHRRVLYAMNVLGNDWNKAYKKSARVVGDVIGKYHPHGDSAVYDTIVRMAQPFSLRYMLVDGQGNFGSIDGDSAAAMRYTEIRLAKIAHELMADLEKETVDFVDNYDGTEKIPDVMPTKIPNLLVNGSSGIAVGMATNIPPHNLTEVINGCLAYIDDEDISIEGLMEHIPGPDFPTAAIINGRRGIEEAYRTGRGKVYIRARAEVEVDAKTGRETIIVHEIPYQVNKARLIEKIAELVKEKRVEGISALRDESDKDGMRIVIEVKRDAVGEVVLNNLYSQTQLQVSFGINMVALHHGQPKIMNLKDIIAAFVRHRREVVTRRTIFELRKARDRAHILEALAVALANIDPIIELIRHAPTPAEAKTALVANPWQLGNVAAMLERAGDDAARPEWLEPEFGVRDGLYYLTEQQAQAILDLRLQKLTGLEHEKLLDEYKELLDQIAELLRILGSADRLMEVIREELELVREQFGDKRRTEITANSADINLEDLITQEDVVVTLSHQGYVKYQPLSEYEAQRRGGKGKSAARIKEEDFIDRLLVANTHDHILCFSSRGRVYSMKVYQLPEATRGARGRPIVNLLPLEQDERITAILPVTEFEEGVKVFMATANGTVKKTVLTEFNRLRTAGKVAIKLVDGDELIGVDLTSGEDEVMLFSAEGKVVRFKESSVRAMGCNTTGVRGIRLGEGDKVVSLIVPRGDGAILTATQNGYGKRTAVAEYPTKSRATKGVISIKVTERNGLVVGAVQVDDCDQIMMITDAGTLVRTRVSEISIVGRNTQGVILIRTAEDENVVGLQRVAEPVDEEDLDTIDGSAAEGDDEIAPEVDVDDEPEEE
T2 sequence (P20083 whole entry): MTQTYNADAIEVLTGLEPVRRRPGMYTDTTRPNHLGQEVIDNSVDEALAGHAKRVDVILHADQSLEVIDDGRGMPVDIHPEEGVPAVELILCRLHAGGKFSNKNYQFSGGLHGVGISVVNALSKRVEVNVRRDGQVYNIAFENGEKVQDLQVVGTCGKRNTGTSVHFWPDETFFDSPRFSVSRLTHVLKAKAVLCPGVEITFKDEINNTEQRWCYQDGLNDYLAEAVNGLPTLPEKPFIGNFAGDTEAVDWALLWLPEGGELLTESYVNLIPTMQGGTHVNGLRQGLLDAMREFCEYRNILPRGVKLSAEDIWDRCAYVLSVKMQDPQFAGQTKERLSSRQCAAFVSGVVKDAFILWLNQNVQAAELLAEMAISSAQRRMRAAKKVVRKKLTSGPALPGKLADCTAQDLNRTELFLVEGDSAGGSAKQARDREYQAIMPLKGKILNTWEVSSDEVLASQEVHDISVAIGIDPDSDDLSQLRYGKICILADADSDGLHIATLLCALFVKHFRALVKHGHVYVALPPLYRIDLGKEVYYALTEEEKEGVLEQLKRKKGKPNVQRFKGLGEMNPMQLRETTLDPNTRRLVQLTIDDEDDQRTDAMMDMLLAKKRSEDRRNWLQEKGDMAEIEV
T2 sequence (P0AFI2 whole entry): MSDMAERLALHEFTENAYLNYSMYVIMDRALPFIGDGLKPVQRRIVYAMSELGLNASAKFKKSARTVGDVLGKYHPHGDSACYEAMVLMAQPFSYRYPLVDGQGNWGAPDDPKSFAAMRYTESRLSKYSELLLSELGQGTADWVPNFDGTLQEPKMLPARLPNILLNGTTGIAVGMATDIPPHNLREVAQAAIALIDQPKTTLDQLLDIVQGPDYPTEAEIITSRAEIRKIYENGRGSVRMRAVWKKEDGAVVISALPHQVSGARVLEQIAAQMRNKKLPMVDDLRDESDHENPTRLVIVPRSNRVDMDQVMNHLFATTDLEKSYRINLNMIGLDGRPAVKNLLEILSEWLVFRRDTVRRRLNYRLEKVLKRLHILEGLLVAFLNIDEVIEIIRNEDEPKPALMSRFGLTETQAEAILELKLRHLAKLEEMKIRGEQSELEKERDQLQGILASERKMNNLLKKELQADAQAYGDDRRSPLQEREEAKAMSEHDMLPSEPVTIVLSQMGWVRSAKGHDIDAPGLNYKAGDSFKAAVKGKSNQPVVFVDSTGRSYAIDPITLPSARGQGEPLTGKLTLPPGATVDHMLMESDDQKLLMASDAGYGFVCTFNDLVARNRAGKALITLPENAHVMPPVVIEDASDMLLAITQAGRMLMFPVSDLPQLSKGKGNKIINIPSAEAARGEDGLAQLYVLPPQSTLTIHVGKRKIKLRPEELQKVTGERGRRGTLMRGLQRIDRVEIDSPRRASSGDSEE

`CCn1c(=O)n(O)c(=O)c2cc(F)c(N3CCOCC3)cc21` [Example 3, 1-Ethyl-6-fluoro-3-hydroxy-7-morpholin-4-yl-1H-quinazoline-2,4-dione]: the MIC with B. subtilis RB1 is 8 mg/L (≈ 25.9 µM); in the data set on S. pyogenes C203, above 64 mg/L; in the data set on S. aureus 29213 it was above 64 mg/L; in the data set with E. coli Tol C it was 2 mg/L (≈ 6.47 µM); with E. coli MC4100, above 64 mg/L; in the data set on E. coli B90, 4 mg/L (≈ 12.9 µM). For the same compound, the “50% Cytotoxic Conc. in CHO Cells” value in data set [1] was 176 µg/mL.

On to `CCn1c(=O)n(O)c(=O)c2cc(F)c(N3CCC(C)(CN)C3)cc21.Cl` (stereo not shown) [Example 9, 7-(3-Aminomethyl-3-methyl-pyrrolidin-1-yl)-1-ethyl-6-fluoro-3-hydroxy-1H-quinazoline-2,4-dione, hydrochloride], for which the MIC in the data set with B. subtilis RB1 was 16 mg/L; in the data set with S. pyogenes C203, 8 mg/L; with S. aureus 29213, 16 mg/L; with E. coli Tol C, 2 mg/L; in the data set with E. coli MC4100, 16 mg/L; with E. coli B90, 4 mg/L. Besides, the IC50 on E. coli gyrase was 15.5 µM; at E. coli Topoisomerase IV, above 100 µM.

In the case of `O=c1c2cc(F)c(N3CCCC3)cc2n(C2CC2)c(=O)n1O` [Example 38, 1-Cyclopropyl-6-fluoro-3-hydroxy-7-(pyrrolidin-1-yl)-1H-quinazoline-2,4-dione], the MIC in the data set on B. subtilis RB1 is 0.25 mg/L (≈ 0.819 µM); with S. pyogenes C203, 16 mg/L (≈ 52.4 µM); in the data set with S. aureus 29213, 1 mg/L (≈ 3.28 µM); in the data set on E. coli Tol C it was 0.1 mg/L (≈ 0.328 µM); in the data set with E. coli MC4100, 8 mg/L (≈ 26.2 µM); with E. coli B90, 0.1 mg/L (≈ 0.328 µM). The IC50 was 6.6 µM on E. coli gyrase (setting [2]) and 57 µM at E. coli Topoisomerase IV (setting [3]).

As to `NC1CCN(c2cc3c(cc2F)c(=O)n(O)c(=O)n3C2CC2)C1` (stereo not shown) [Example 39, 7-(3-Amino-pyrrolidin-1-yl)-1-cyclopropyl-6-fluoro-3-hydroxy-1H-quinazoline-2,4-dione], the MIC in the data set with B. subtilis RB1 came to 2 mg/L (≈ 6.24 µM); in the data set with S. pyogenes C203 it was 4 mg/L (≈ 12.5 µM); in the data set with S. aureus 29213 it was 32 mg/L (≈ 99.9 µM); with E. coli Tol C it was 0.25 mg/L (≈ 0.78 µM); in the data set with E. coli MC4100, 1 mg/L (≈ 3.12 µM); in the data set with E. coli B90, 0.3 mg/L (≈ 0.937 µM). Besides, the IC50 is 2.4 µM on E. coli gyrase (setting [2]) and 9 µM on E. coli Topoisomerase IV (setting [3]).
